Tested on: Vaccinia virus
Experiment: Antiviral activity against Vaccinia virus infected in human HEL cells assessed as reduction of virus-induced cytopathogenicity
Assay type: functional, organism-based
Settings: Orthopoxvirus vaccinia

SMILES | EC50 [µM]
COC(=O)c1c(C)nc(NCCCNc2ccnc3cc(Cl)ccc23)nc1-c1ccccc1 | > 20
Cc1nc(NCCCCNc2ccnc3cc(Cl)ccc23)nc(-c2ccccc2)c1C(=O)OC(C)C | > 4
CCOC(=O)c1c(C)nc(NCCCCNc2ccnc3cc(Cl)ccc23)nc1-c1ccccc1[N+](=O)[O-] | > 4
CCOC(=O)c1c(C)nc(OCCCNc2ccnc3cc(Cl)ccc23)nc1-c1ccccc1 | > 100
CCOC(=O)c1c(C)nc(NCCCCNc2ccnc3cc(Cl)ccc23)nc1-c1ccc(Cl)cc1 | > 20
CCOC(=O)c1c(C)nc(NCCCCNc2ccnc3cc(Cl)ccc23)nc1-c1ccc(F)cc1 | > 100
CCOC(=O)c1cnc(NCCCCNc2ccnc3cc(Cl)ccc23)nc1C | > 100
Nc1nc2c(ncn2COCCO)c(=O)[nH]1 [ACYCLOVIR] | > 250
O=c1[nH]c(=O)n([C@H]2C[C@H](O)[C@@H](CO)O2)cc1/C=C/Br [BRIVUDINE] | 5
Nc1ccn(C[C@@H](CO)OCP(=O)(O)O)c(=O)n1 [CIDOFOVIR] | 17
Nc1nc2c(ncn2COC(CO)CO)c(=O)[nH]1 [GANCICLOVIR] | > 100
